What was measured:
Assay in all cases: relative viability (nuclei count vs DMSO), 5 days (fraction); higher = more cells survive
[1] = compound: COC1=CC=C(C=C1)CN2C=CC3=C2C=C(C=C3)C(=O)NO + CC(=O)c1c(C)c2cnc(Nc3ccc(N4CCNCC4)cn3)nc2n(C2CCCC2)c1=O [Palbociclib] (partner 0.5 µM)
Summary of the method: (§1)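 Dosing by pin tool came one day after lung cancer cell lines were seeded in 1536-well plates, using either one drug or a fixed anchor-drug dose plus five library-drug doses (not always all listed) in √10 steps. After 5 days, nuclei were counted on 4× images. Relative viability is treated-well nuclei count divided by vehicle-well nuclei count, and values are medians of duplicate plates.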

[2] = compound: COC1=CC=C(C=C1)CN2C=CC3=C2C=C(C=C3)C(=O)NO + CC1(C)CCC(c2ccc(Cl)cc2)=C(CN2CCN(c3ccc(C(=O)NS(=O)(=O)c4ccc(N[C@H](CCN5CCOCC5)CSc5ccccc5)c(S(=O)(=O)C(F)(F)F)c4)cc3)CC2)C1 [Navitoclax] (partner 0.5 µM)
Summary of the method: as §1

[3] = compound: C[C@]1(c2nc3c(C(N)=O)cccc3[nH]2)CCCN1 [Veliparib] + C[C@@H](Oc1cc(-c2cnn(C3CCNCC3)c2)cnc1N)c1c(Cl)ccc(F)c1Cl [Crizotinib] (partner 1 µM)
Summary of the method: as §1

[4] = compound: C[C@]1(c2nc3c(C(N)=O)cccc3[nH]2)CCCN1 [Veliparib] + C[C@]1(O)C[C@@H](c2nc(-c3ccc4ccc(-c5ccccc5)nc4c3)c3c(N)nccn32)C1 [Linsitinib] (partner 1 µM)
Summary of the method: as §1

Cell Line	relative viability ([1]; first compound 0.08 µM)	relative viability ([1]; first compound 0.253 µM)	relative viability ([1]; first compound 0.8 µM)	relative viability ([1]; first compound 2.53 µM)	relative viability ([1]; first compound 8 µM)	relative viability ([2]; first compound 0.08 µM)	relative viability ([2]; first compound 0.253 µM)	relative viability ([2]; first compound 0.8 µM)	relative viability ([2]; first compound 2.53 µM)	relative viability ([2]; first compound 8 µM)	relative viability ([3]; first compound 0.02 µM)	relative viability ([3]; first compound 0.06325 µM)	relative viability ([3]; first compound 0.2 µM)	relative viability ([3]; first compound 0.6325 µM)	relative viability ([3]; first compound 2 µM)	relative viability ([4]; first compound 0.02 µM)	relative viability ([4]; first compound 0.06325 µM)	relative viability ([4]; first compound 0.2 µM)	relative viability ([4]; first compound 0.6325 µM)	relative viability ([4]; first compound 2 µM)
NCI-H1755	0.464	0.48	0.5	0.448	0.423	0.949	1.02	1	1.03	1.02	0.84	0.853	0.794	0.832	0.805	1	0.972	0.972	0.968	0.963
NCI-H1792	0.616	0.726	0.626	0.634	0.637	0.574	0.55	0.481	0.646	0.601	0.98	0.919	0.942	0.93	0.939	0.59	0.422	0.535	0.494	0.543
NCI-H1915	0.506	0.545	0.518	0.505	0.559	0.724	0.778	0.799	0.807	0.781	0.866	0.869	0.803	0.754	0.771	1.07	1.07	1.02	0.954	0.995
NCI-H1944	–	0.36	0.315	0.338	0.308	–	0.998	1.02	1.08	1.08	0.995	1.04	0.951	0.965	0.976	1.21	1.17	1.06	1.19	1.12

Reference: the supplement of paper PMC10307832
